According to patent publication US12157722B1, “Crystalline hydrochloride salts of N-ethyl-2-(5-fluoro-1H-indol-3-yl)-N-methylethan-1-amine” (Gilgamesh Pharmaceuticals, Inc., priority 2023, dated 2024):

Legend:
[1] = Exposure of dry cake to humidity, solid form checked by XRPD; assay type: physicochemical; details: for XRPD pattern, dry cake exposed to humidity: monofumarate solids exposed to humidity (90% RH/30° C.)
[2] = Dynamic Vapor Sorption (DVS); assay type: physicochemical; details: 25° C., 75% RH
Procedure: Dynamic Vapor Sorption (DVS) was performed using a Q5000SA. The sample (5-15 mg) was loaded into a metallic quartz sample pan, suspended from a microbalance, and exposed to a humidified stream of nitrogen gas. Weight changes were relative to a matching empty reference pan opposite the sample, suspended from the microbalance. The sample was held for a minimum of 10 min at each level and only progressed to the next humidity level if there was <0.002% change in weight between measurements (interval: 5 s) or 45 min had elapsed (for 5-65% RH) or 2 h had elapsed (for 80 and 95% RH). The following programs were used: • 1—Equilibration at 50% RH • 2—50% to 5%. (50%, 35%, 20%, and 5%) • 3—5% to 95%(5%, 20%, 35%, 50%, 65%, 80%, and 95%) • 4—95% to 5%(95%, 80%, 65%, 50%, 35%, 20%, and 5%) • 5—5% to 50% (5%, 20%, 35%, and 50%) • 1—Equilibration at 50% RH • 2—50% to 2%. (50%, 40%, 30%, 20%, 10%, and 2%) • 3—2% to 75%(2%, 10%, 20%, 30%, 40%, 50%, 60%, 70% and 75%) • 4—75% to 2%(75%, 70%, 60%, 50%, 40%, 30%, 20%, 10% and 2%) • 5—2% to 50% (2%, 10%, 20%, 30%, 40% and 50%) • 1—Equilibration at 50% RH • 2—50% to 2%.(50%, 40%, 30%, 20%, 10%, and 2%) • 3—2% to 65% (2%, 10%, 20%, 30%, 40%, 50%, 60% and 65%) • 4—65% to 2% (65%, 60%, 50%, 40%, 30%, 20%, 10% and 2%) • 5—2% to 50% (2%, 10%, 20%, 30%, 40% and 50%). […]

SMILES	XRPD pattern, dry cake exposed to humidity [1]	further results
CCN(C)CCc1c[nH]c2ccc(F)cc12.O=C(O)/C=C/C(=O)O [monofumarate Form 1, N-ethyl-2-(5-fluoro-1H-indol-3-yl)-N-methylethan-1-amine monofumarate Form 1]	Form 1	–
CCN(C)CCc1c[nH]c2ccc(F)cc12.Cl [hydrochloride Form 1, N-ethyl-2-(5-fluoro-1H-indol-3-yl)-N-methylethan-1-amine hydrochloride Form 1]	–	DVS isotherm, equilibration behaviour [2]: did not reach equilibrium at 75% RH
CCN(C)CCc1c[nH]c2ccc(F)cc12.O=C(O)/C=C/C(=O)O [monofumarate Form 2, N-ethyl-2-(5-fluoro-1H-indol-3-yl)-N-methylethan-1-amine monofumarate Form 2]	slowly converted to Form 1	–
CCN(C)CCc1c[nH]c2ccc(F)cc12.CCN(C)CCc1c[nH]c2ccc(F)cc12.O=C(O)/C=C/C(=O)O [hemifumarate Form 1, N-ethyl-2-(5-fluoro-1H-indol-3-yl)-N-methylethan-1-amine hemifumarate Form 1]	–	XRPD pattern, Humid ([1]; hemifumarate dry cake from EtOH:MTBE (1:1 vol.) exposed to humidity): deliquescent
